Key:
[1] = Elimination half-life of compound A; conditions: in vivo; read-out: elimination half-life (T1/2)
Source text: Taking into consideration the results of the clinical trial described above, the present inventors conducted intensive studies to design the formulation by paying attention to the control of a release rate of the drug from a formulation to the extent that the release is not affected by food intake or the like, rather than the addition of release control.

[2] = Pharmacokinetics (PK) test of immediate release formulation (capsule formulation) in human: Cmax and heart rate; format: in vivo; conditions: healthy subjects; immediate release capsules, 0.1 mg to 340 mg
Protocol: An immediate release formulation (capsule formulation) containing compound A was administered to healthy subjects in a fasted state, before 30 min from the intake of a meal, or after 30 min from the meal, and the drug concentration in the plasma was measured. The immediate release formulations (capsule formulations) containing 0.1 mg, 1 mg, 5 mg, 20 mg, and 80 mg of the compound A were used in combinations as needed so that the dose of compound A became 0.1 mg, 1 mg, 3 mg, 10 mg, 30 mg, 100 mg, 160 mg, 240 mg, and 340 mg.

Nc1nc(CC(=O)Nc2ccc(CCNC[C@H](O)c3ccccc3)cc2)cs1 [compound A, (R)-2-(2-aminothiazol-4-yl)-4′-[2-[(2-hydroxy-2-phenylethyl)amino]ethyl]acetic acid anilide]
half-life [1]: 18 to 24 h | relation between maximum plasma concentration (Cmax) and increase in heart rate from the base line [2]: a positive correlation was observed
